Patent publication US9175260B2, “Early mesoderm cells, a stable population of mesendoderm cells that has utility for generation of endoderm and mesoderm lineages and multipotent migratory cells (MMC)” (TheUniversity of Georgia Research Foundation, Inc., priority 2007, dated 2015)

Experiments:
Type in all cases: cell-based, human
hESCs (BG01) [1] = assay: Mesendoderm generation from hESCs with BIO in defined media (Q-PCR, immunostaining); conditions: BIO 2 μM
Procedure: hESCs (BG01) were plated as per the conditions specified in Example 1 in defined media. After ˜16-24 hours, BIO (2 μM) was added to cultures.

hESCs (BG02) = assay: BIO added to hESCs grown in MEF-CM (immunostaining)
Procedure: hESCs (BG02) grown in MEF-CM on Matrigel coated plates, were passaged in MEF-CM plus BIO (2 μM) over 4 days.

hESC (BG02) = assay: Generation of definitive endoderm: BIO and SB431542 followed by high Activin A (Q-PCR); conditions: defined media minus IGF-I and Heregulin plus Activin A 100 ng/ml, 4 days, after 4 days BIO/SB431542
Procedure: hESC were taken and grown in defined media in the presence of BIO (2 μM) and SB431542 (20 μM) for 4 days. The cells were then split 1-4 into the same media or defined media minus IGF-I and heregulin and with additional Activin A (100 ng/ml) for an additional 4 days (FIG. 22). Samples (BG02) were taken every 2 days up to 8 days for Q-PCR analysis. […] This cell type persisted in the presence of BIO/SB431542.

[2] = tested on: cells passaged in BIO/SB431542 (MMCs); assay: Differentiation of MMCs to endoderm with Activin A after removal of BIO/SB431542 (Q-PCR); conditions: 6 passages in BIO/SB431542, then Activin A to 100 ng/ml without IGF-I, heregulin; 4 day period
From the text: We consider these cells to be pre-mesoderm and pre-endoderm but no longer hESCs. This raised the possibility that these cells retained a multipotent differentiation potential that could be manifested following removal of BIO/SB431542 and by addition of cell differentiation factors. To test the possibility that the cells in BIO/SB431542-containing media could be further differentiated into endoderm, we grew cells for 6 passages in BIO/SB431542, then removed BIO/SB431542, and IGF-I, heregulin (two activators of PI3K activity) from the media and supplemented with Activin A to 100 ng/ml. These are conditions that support differentiation of hESCs to definitive endoderm. Over a 4 day period following the switch to the endoderm differentiation conditions we observed increases in Sox17 and CXCR4 transcripts while Nanog, T and eomesodermin transcripts remained low (FIG. 32). […] We propose that the BIO/SB431542 treated cells could also be differentiated into mesoderm and perhaps other lineages (ectoderm) if exposed to the appropriate specification factors. For example, we believe that BIO/SB431542-treated cells could be converted to mesoderm cells if BIO/SB431542 was removed and BMP4 was added to the media.

hESCs (BG01) [3] = assay: Mesendoderm generation from hESCs with Wnt3a in defined media (Q-PCR, immunostaining); conditions: Wnt3a 25 ng/ml
Procedure: hESCs (BG01) were plated as per the conditions specified in Example 1 in defined media. After ˜16-24 hours, human Wnt3a (25 ng/ml; R&D Systems) was added to cultures.

[4] = involving an epithelial to mesenchymal transition
[5] = BIO 2 μM, 4 days, cells passaged with trypsin
[6] = BIO, cells passaged with collagenase

Molecule: O=C1Nc2cc(Br)ccc2/C1=C1/Nc2ccccc2/C1=N\O [BIO, (2′Z,3′E)-6-Bromoindirubin-3′-oxime]
- Snail localisation (immunostaining) (hESCs (BG01) [1]; 48 hours): accumulates in the nucleus
- T/brachyury levels (immunostaining) (hESCs (BG01) [1]; 48 hours): increased
- E-cadherin and Nanog (immunostaining) (hESCs (BG01) [1]; after 48 hours): downregulated
- Nanog transcripts (Q-PCR) (hESCs (BG01) [1]; defined media): decreased by 48 hours
- T and MixL1 mRNA levels (Q-PCR) (hESCs (BG01) [1]; defined media): increased over the first 24 hours then decreased thereon
- differentiation outcome (hESCs (BG01) [1]; [4]): caused hESCs to differentiate to mesendoderm
- differentiation outcome (hESCs (BG02); BIO 2 μM): promotes an epithelial to mesenchymal transition and differentiation to mesendoderm
- Oct4 and E-cadherin (immunostaining) (hESCs (BG02); [5]): downregulation
- T/Brachyury (immunostaining) (hESCs (BG02); [5]): upregulation
- Nanog and E-cadherin (immunostaining) (hESCs (BG02); [6]): downregulation
- T/Brachyury (immunostaining) (hESCs (BG02); [6]): upregulation

B1: Activin A: growth factor (R&D Systems), used at high levels (100 ng/ml) to produce definitive endoderm (protein, UniProt P08476 311-426, looked up)
Inhibin beta A chain: GLECDGKVNICCKKQFFVSFKDIGWNDWIIAPSGYHANYCEGECPSHIAGTSGSSLSFHSTVINHYRMRGHSPFANLKSCCVPTKLRPMSMLYYDDGQNIIKKDIQNMIVEECGCS
- differentiation after switch to Activin A (Q-PCR: Sox17, CXCR4 upregulated, FoxF1 absent) (hESC (BG02)): further differentiated into DE
- Nanog, T and eomesodermin transcripts (Q-PCR) [2]: remained low
- Sox17 and CXCR4 transcripts (Q-PCR) [2]: increases

B2: Wnt3a: canonical Wnt signaling molecule; human Wnt3a (R&D Systems) (protein, UniProt P56704 19-352, looked up)
Protein Wnt-3a: SYPIWWSLAVGPQYSSLGSQPILCASIPGLVPKQLRFCRNYVEIMPSVAEGIKIGIQECQHQFRGRRWNCTTVHDSLAIFGPVLDKATRESAFVHAIASAGVAFAVTRSCAEGTAAICGCSSRHQGSPGKGWKWGGCSEDIEFGGMVSREFADARENRPDARSAMNRHNNEAGRQAIASHMHLKCKCHGLSGSCEVKTCWWSQPDFRAIGDFLKDKYDSASEMVVEKHRESRGWVETLRPRYTYFKVPTERDLVYYEASPNFCEPNPETGSFGTRDRTCNVSSHGIDGCDLLCCGRGHNARAERRREKCRCVFHWCCYVSCQECTRVYDVHTCK
- T/brachyury levels (immunostaining) (hESCs (BG01) [3]; 48 hours): increased
- β-catenin and Snail localisation (immunostaining) (hESCs (BG01) [3]; 48 hours): accumulate in the nucleus
- E-cadherin and Nanog (immunostaining) (hESCs (BG01) [3]; after 48 hours): downregulated
- Nanog transcripts (Q-PCR) (hESCs (BG01) [3]; defined media): decreased by 48 hours
- T, Eomes and MixL1 mRNA levels (Q-PCR) (hESCs (BG01) [3]; defined media): increased over 1-2 days, then decreased by day 5
- differentiation outcome (hESCs (BG01) [3]; [4]): caused hESCs to differentiate to mesendoderm
